molecular target: T1, Full length human CDC7 protein co-expressed with DBF4 (Homo sapiens, UniProt O00311); assay: CDC7 Kinase Biochemical Assay (ADP-Glo, PDKtide substrate); conditions: 0.1 nM CDC7/DBF4, 1 μM ATP, 10 μM PDKtide, 4 h reaction
T1 construct: Full length human CDC7 protein co-expressed with DBF4; purchased SignalChem (China)
Experimental: CDC7 Kinase Biochemical Assay PROTOCOL:
Full length human CDC7 protein co-expressed with DBF4 was purchased from SignalChem (China). CDC7 kinase activity was determined with PDKtide (SignalChem) as a substrate and by measuring ADP production using the ADP-Glo™ Kinase Assay kit (Promega) following the manufacturer's instructions. The kinase reaction was performed using the following conditions: Buffer: 40 mM Tris pH 7.5, 20 mM MgCl2, 0.1 mg/mL BSA and 50 μM DTT. Final reaction mix contained 0.1 nM CDC7/DBF4, 1 μM ATP and 10 μM PDKtide. The kinase reaction time was 4 h. The ADP-Glo signal was measured using an EnVision plate reader (PerkinELmer).
Percent inhibition of CDC7 kinase activity was calculated based on the following formula:
[formula] • SSample: the signal of compounds • SHigh Ctrl: the signal of high control (DMSO) • SLow Ctrl: the signal of low control (positive control CDC7 inhibitor)

T1 sequence (O00311 whole entry): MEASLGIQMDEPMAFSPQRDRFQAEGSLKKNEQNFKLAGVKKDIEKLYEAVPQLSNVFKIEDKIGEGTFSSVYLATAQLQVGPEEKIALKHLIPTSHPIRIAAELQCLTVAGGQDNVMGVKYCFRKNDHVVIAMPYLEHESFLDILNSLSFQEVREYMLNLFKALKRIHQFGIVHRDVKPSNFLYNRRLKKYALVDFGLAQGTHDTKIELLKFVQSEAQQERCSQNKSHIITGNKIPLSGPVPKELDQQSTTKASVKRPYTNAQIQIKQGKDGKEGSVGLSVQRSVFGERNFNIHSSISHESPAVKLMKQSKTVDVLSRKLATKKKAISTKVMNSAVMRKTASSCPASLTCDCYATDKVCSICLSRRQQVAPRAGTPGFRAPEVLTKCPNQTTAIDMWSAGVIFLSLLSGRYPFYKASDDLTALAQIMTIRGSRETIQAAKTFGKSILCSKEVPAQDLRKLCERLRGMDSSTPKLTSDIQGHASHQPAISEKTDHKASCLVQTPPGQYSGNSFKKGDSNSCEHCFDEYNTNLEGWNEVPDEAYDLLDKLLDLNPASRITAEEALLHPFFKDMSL
T1 sequence (Q9UBU7 whole entry partner): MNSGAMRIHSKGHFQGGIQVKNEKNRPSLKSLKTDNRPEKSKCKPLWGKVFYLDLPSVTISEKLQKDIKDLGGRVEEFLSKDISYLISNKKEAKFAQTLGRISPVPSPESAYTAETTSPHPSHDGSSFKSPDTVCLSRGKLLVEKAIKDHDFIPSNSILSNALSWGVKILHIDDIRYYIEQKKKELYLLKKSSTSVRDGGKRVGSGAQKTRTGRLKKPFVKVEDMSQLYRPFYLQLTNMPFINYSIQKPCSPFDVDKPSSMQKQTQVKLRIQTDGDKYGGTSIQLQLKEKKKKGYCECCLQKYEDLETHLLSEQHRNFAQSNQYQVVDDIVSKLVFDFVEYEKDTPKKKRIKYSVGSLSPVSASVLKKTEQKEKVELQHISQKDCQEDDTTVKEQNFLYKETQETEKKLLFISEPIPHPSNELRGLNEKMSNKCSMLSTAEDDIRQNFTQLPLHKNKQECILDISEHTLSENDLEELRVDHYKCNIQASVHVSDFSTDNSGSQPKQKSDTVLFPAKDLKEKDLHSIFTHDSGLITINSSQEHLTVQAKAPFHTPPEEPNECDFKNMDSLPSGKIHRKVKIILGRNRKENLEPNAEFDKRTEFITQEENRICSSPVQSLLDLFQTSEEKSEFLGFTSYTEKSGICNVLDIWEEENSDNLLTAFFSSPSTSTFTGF

| Structure (SMILES) | IC50 [nM] |
| --- | --- |
| CN(C)C1(C)COCc2c1[nH]c(=O)c1sc(-c3cn[nH]c3)cc21 (single isomer, unassigned) [Compound 82] | 1 to 10 |
| CN(C)C1(C)COCc2c1[nH]c(=O)c1sc(-c3cn[nH]c3)cc21 (single isomer, unassigned) [Compound 83] | 1 to 10 |
| CC(C)C1(O)CCCc2c1[nH]c(=O)c1sc(-c3cn[nH]c3)cc21 (single isomer, unassigned) [Compound 87] | ≤ 1 |
| CC(C)C1(O)CCCc2c1[nH]c(=O)c1sc(-c3cn[nH]c3)cc21 (single isomer, unassigned) [Compound 88] | 1 to 10 |
| Cn1nccc1-c1cc2c3c([nH]c(=O)c2s1)C(O)(C(C)(C)C)COC3 (single isomer, unassigned) [Compound 90] | > 10 |
| Cc1n[nH]cc1-c1cc2c3c([nH]c(=O)c2s1)C(O)(C(C)(C)C)COC3 (single isomer, unassigned) [Compound 92] | ≤ 1 |
| CC(F)(F)C1(O)COCc2c1[nH]c(=O)c1sc(-c3cn[nH]c3)cc21 (single isomer, unassigned) [Compound 95] | 1 to 10 |
| CC(F)(F)C1(O)COCc2c1[nH]c(=O)c1sc(-c3cn[nH]c3)cc21 (single isomer, unassigned) [Compound 96] | ≤ 1 |
| O=c1[nH]c2c(c3cc(-c4cn[nH]c4)sc13)CCCC2 [Compound 1, 2-(1H-pyrazol-4-yl)-6,7,8,9-tetrahydrothieno[2,3-c]quinolin-4(5H)-one] | ≤ 1 |
| O=c1[nH]c2c(c3c(F)c(-c4cn[nH]c4)sc13)CC(F)(F)CC2 [Compound 2, 1,8,8-trifluoro-2-(1H-pyrazol-4-yl)-5,6,7,9-tetrahydrothieno[2,3-c]quinolin-4-one] | ≤ 1 |
| O=c1[nH]c2c(c3cc(-c4ccncc4)sc13)C1CCC2(O)CC1 [Compound 9, 6-hydroxy-2-(pyridin-4-yl)-6,7,8,9-tetrahydro-6,9-ethanothieno[2,3-c]quinolin-4(5H)-one] | ≤ 1 |
| CC1(N2CCCC2)COCc2c1[nH]c(=O)c1sc(-c3cn[nH]c3)cc21 (stereo not drawn) [Compound 71, 4-methyl-8-(1H-pyrazol-4-yl)-4-(pyrrolidin-1-yl)-1,3,4,5-tetrahydro-6H-pyrano[4,3-b]thieno[3,2-d]pyridin-6-one] | > 10 |
| CNC1(C)COCc2c1[nH]c(=O)c1sc(-c3cn[nH]c3)cc21 (stereo not drawn) [Compound 84, 4-methyl-4-(methylamino)-8-(1H-pyrazol-4-yl)-1,3,4,5-tetrahydro-6H-pyrano[4,3-b]thieno[3,2-d]pyridin-6-one] | ≤ 1 |
| CC(F)(F)CC1(O)COCc2c1[nH]c(=O)c1sc(-c3cn[nH]c3)cc21 (stereo not drawn) [Compound 86, 4-(2,2-difluoropropyl)-4-hydroxy-8-(1H-pyrazol-4-yl)-1,3,4,5-tetrahydro-6H-pyrano[4,3-b]thieno[3,2-d]pyridin-6-one] | ≤ 1 |
| CC(=O)N1Cc2c([nH]c(=O)c3sc(-c4cn[nH]c4)cc23)C(O)(C(C)(C)C)C1 (stereo not drawn) [Compound 94, 2-acetyl-4-tert-butyl-4-hydroxy-8-(1H-pyrazol-4-yl)-3,5-dihydro-1H-thieno[2,3-c][1,6]naphthyridin-6-one] | ≤ 1 |

Reference: patent publication US20240199634A1, “CYCLIC COMPOUNDS AND METHODS OF USING SAME” (SCHRÖDINGER, INC., priority 2021, published 2024)
